# From article PMC7442133, “Reduced treatment frequencies with bumped kinase inhibitor 1369 are effective against porcine cystoisosporosis” (International Journal for Parasitology: Drugs and Drug …, 2020)
# Where “and” joins values, the source holds several entries; their conditions need not be identical. Identical values can stand only once.
# Test: Body weight development of experimentally infected suckling piglets
# Format: in vivo
# Conditions: for BW SD 8 / BW SD 15 / BW SD 22 / BW SD 29 / BW SD 1: SD in brackets; for BW SD 1: before treatment
# [1] = Exp I group A: 1 × 20 mg/kg BW, SD 3 (0 dpi)
# [2] = Exp I group B: 1 × 20 mg/kg BW, SD 5 (2 dpi)
# [3] = Exp I group C: 2 × 20 mg/kg BW, SD 5 & 7 (2 & 4 dpi)
# [4] = Exp II group W: 1 × 20 mg/kg BW, SD 5 (2 dpi)
# [5] = Exp II group X: 1 × 10 mg/kg BW, SD 5 (2 dpi)
# [6] = Exp II group Y: 1 × 5 mg/kg BW, SD 5 (2 dpi)
smiles,measurement,setting,value
CCOc1ccc2cc(-c3nn(CC4CCN(C)CC4)c4ncnc(N)c34)ccc2n1 [BKI 1369],BW SD 8,[1],2604 [283.8] g
same,BW SD 15,[1],4198.4 [573.9] g
same,BW SD 22,[1],6082 [750.1] g
same,BW SD 29,[1],7956 [750.22] g
same,BW SD 1,[1],1276 [227.4] g
same,"BWG SD 8 to 15 (mean body weight gain, acute phase of infection)","Exp I group A: 1 × 20 mg/kg BW, SD 3 (0 dpi), control D 1042 g, 20 mg/kg",1594 g and 1594.4 g
same,BW SD 8,[2],2530.9 [362.3] g
same,BW SD 15,[2],4292.7 [724.9] g
same,BW SD 22,[2],5892.7 [1225.6] g
same,BW SD 29,[2],7721.8 [1710.2] g
same,BW SD 1,[2],1214.5 [206.9] g
same,"BWG SD 8 to 15 (mean body weight gain, acute phase of infection)","Exp I group B: 1 × 20 mg/kg BW, SD 5 (2 dpi), control D 1042 g, 20 mg/kg",1762 g and 1761.8 g
same,BW SD 8,[3],2494.5 [328.9] g
same,BW SD 15,[3],4267.3 [491.6] g
same,BW SD 22,[3],5950.9 [619.6] g
same,BW SD 29,[3],7867.3 [851.9] g
same,BW SD 1,[3],1163.6 [205.5] g
same,"BWG SD 8 to 15 (mean body weight gain, acute phase of infection)","Exp I group C: 2 × 20 mg/kg BW, SD 5 & 7 (2 & 4 dpi), control D 1042 g, 20 mg/kg",1773 g and 1772.7 g
same,BW SD 8,[4],3148.0 [610.4] g
same,BW SD 15,[4],5140.0 [830.8] g
same,BW SD 22,[4],6952.0 [1204.0] g
same,BW SD 29,[4],9242.0 [1250.4] g
same,BW SD 1,[4],1606.0 [347.4] g
same,"BWG SD 8 to 15 (mean body weight gain, acute phase of infection)","Exp II group W: 1 × 20 mg/kg BW, SD 5 (2 dpi), control Z 389 g, 20 mg/kg",1992 g and 1992.0 g
same,BW SD 8,[5],1968.0 [632.7] g
same,BW SD 15,[5],4606.0 [745.5] g
same,BW SD 22,[5],6502.0 [1068.4] g
same,BW SD 29,[5],8752.0 [2465.6] g
same,BW SD 1,[5],1472.0 [353.0] g
same,"BWG SD 8 to 15 (mean body weight gain, acute phase of infection)","Exp II group X: 1 × 10 mg/kg BW, SD 5 (2 dpi), control Z 389 g, 10 mg/kg",1638 g and 1638.0 g
same,BW SD 8,[6],2771.1 [654.5] g
same,BW SD 15,[6],3891.1 [990.8] g
same,BW SD 22,[6],5782.2 [1340.1] g
same,BW SD 29,[6],8055.6 [1626.8] g
same,BW SD 1,[6],1444.4 [391.1] g
same,"BWG SD 8 to 15 (mean body weight gain, acute phase of infection)","Exp II group Y: 1 × 5 mg/kg BW, SD 5 (2 dpi), control Z 389 g, 5 mg/kg",1120 g and 1120.0 g
same,Body weight gain compared to control piglets (in words),irrespective of time points and frequencies of treatment,significant increase in body weight gain
